Laboratory results: patent US10759783B2, “Biaryl inhibitors of Bruton'S tyrosine kinase” (BIOGEN MA INC., priority 2013, dated 2020)

Columns and labels:
[1] = target: BTK (phospho-BTK) in human whole blood (Homo sapiens, UniProt Q06187); assay: In vitro PD assay in human whole blood (pBTK assay)
BTK enzyme = target: T1, BTK enzyme (Homo sapiens, UniProt Q06187); assay: In vitro BTK kinase assay: BTK-POLYGAT-LS assay; format: biochemical; settings: ATP 10 μM, read-out: IC50 (10uMATP)
T1 construct: purchased Upstate 14-552
In short: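 Human BTK activity was measured with final 10 μM ATP and 100 nM polyGAT substrate in pH 7.5 Tris buffer with 10 mM MgCl2, DTT, Triton X-100 and casein.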

Sequence of BTK (phospho-BTK) in human whole blood (Q06187 whole entry): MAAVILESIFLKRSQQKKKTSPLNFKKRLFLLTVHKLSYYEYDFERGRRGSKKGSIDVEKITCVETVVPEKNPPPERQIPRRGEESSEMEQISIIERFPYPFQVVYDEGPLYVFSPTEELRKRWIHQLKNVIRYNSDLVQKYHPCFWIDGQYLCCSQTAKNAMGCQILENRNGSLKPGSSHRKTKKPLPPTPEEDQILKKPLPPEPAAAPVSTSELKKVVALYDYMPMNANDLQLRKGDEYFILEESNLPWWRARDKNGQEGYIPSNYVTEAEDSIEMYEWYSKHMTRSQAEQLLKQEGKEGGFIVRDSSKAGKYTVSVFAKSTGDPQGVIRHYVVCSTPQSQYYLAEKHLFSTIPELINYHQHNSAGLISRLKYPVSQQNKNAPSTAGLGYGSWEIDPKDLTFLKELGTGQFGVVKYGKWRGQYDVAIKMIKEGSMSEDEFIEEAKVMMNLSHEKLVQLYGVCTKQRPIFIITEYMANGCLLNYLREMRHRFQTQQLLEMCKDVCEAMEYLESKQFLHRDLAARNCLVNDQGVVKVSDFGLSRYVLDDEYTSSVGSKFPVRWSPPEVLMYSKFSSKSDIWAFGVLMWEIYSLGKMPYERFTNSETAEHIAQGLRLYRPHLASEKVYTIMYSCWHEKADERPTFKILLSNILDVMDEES
T1 sequence (Q06187 whole entry): as above

SMILES	IC50 [1]	IC50 (BTK enzyme)
Cc1cc(-c2cc(Nc3cc4n(n3)CCN(C)C4)ncn2)ccc1CNC(=O)N1CCC(C(C)(C)C)C1 (stereo not shown) [Example I-275, 3-tert-butyl-N-[[2-methyl-4-[6-[(5-methyl-6,7-dihydro-4H-pyrazolo[1,5-a]pyrazin-2-yl)amino]pyrimidin-4-yl]phenyl]methyl]pyrrolidine-1-carboxamide]	< 500 nM	< 10 nM
CN1CC(n2cc(Nc3nccc(-c4ccc(CNC(=O)c5cc(C(C)(C)C)on5)c(Cl)c4)n3)cn2)C1 [Example I-354, 5-tert-butyl-N-[[2-chloro-4-[2-[[1-(1-methylazetidin-3-yl)pyrazol-4-yl]amino]pyrimidin-4-yl]phenyl]methyl]isoxazole-3-carboxamide]	< 500 nM	< 10 nM
Cc1cc(-c2ccnc(Nc3cnn(C)c3)n2)ccc1C(CO)NC(=O)c1cnc(C(C)(C)C)s1 (stereo not shown) [Example I-108, 2-(tert-butyl)-N-(2-hydroxy-1-(2-methyl-4-(2-((1-methyl-1H-pyrazol-4-yl)amino)pyrimidin-4-yl)phenyl)ethyl)thiazole-5-carboxamide]	1500 to 10000 nM	< 10 nM
CN1CC[C@@H](n2cc(Nc3nccc(-c4ccc(CNC(=O)N5CCC(C(C)(C)C)C5)c(C(F)(F)F)c4)n3)cn2)C1 (stereo partly drawn) [Example I-208, 3-(tert-butyl)-N-(4-(2-((1-((R)-1-methylpyrrolidin-3-yl)-1H-pyrazol-4-yl)amino)pyrimidin-4-yl)-2-(trifluoromethyl)benzyl)pyrrolidine-1-carboxamide]	< 500 nM	< 10 nM
Cc1cc(-c2ccnc(Nc3ccc(N4CCN(C)CC4)cn3)n2)ccc1CNC(=O)c1cnc(C(C)(C)C)s1 [Example I-62, 2-(tert-butyl)-N-(2-methyl-4-(2-((5-(4-methylpiperazin-1-yl)pyridin-2-yl)amino)pyrimidin-4-yl)benzyl)thiazole-5-carboxamide]	1500 to 10000 nM	< 10 nM
COCCn1cc(Nc2nccc(-c3ccc4c(c3)CCCCC4NC(=O)N3CC(OC(C)(C)C)C3)n2)cn1 (stereo not shown) [Example I-175, 3-(tert-butoxy)-N-(2-(2-((1-(2-methoxyethyl)-1H-pyrazol-4-yl)amino)pyrimidin-4-yl)-6,7,8,9-tetrahydro-5H-benzo[7]annulen-5-yl)azetidine-1-carboxamide]	< 500 nM	< 10 nM
Cc1cc(-c2ccnc(Nc3cnn(C[C@@H](O)CN)c3)n2)ccc1CNC(=O)c1cnc(C(C)(C)C)s1 [Example I-129, (S)—N-(4-(2-((1-(3-amino-2-hydroxypropyl)-1H-pyrazol-4-yl)amino)pyrimidin-4-yl)-2-methylbenzyl)-2-(tert-butyl)thiazole-5-carboxamide]	500 to 1500 nM	< 10 nM
Cc1cc(-c2cc(Nc3cc4n(n3)CCN(C)C4)ncn2)ccc1CNC(=O)N1CC[C@H](C(C)(C)C)C1 [Example I-245, (R)-3-(tert-butyl)-N-(2-methyl-4-(6-((5-methyl-4,5,6,7-tetrahydropyrazolo[1,5-a]pyrazin-2-yl)amino)pyrimidin-4-yl)benzyl)pyrrolidine-1-carboxamide]	< 500 nM	< 10 nM
CN1CCC(n2cc(Nc3nccc(-c4ccc5c(c4)CCCCC5NC(=O)N4CC(OC(C)(C)C)C4)n3)cn2)CC1 (stereo not shown) [Example I-180, 3-(tert-butoxy)-N-(2-(2-((1-(1-methylpiperidin-4-yl)-1H-pyrazol-4-yl)amino)pyrimidin-4-yl)-6,7,8,9-tetrahydro-5H-benzo[7]annulen-5-yl)azetidine-1-carboxamide]	< 500 nM	< 10 nM
Cc1cc(-c2cc(Nc3cn(C)cn3)ncn2)ccc1CNC(=O)c1cnc(C(C)(C)C)s1 [Example I-65, 2-(tert-butyl)-N-(2-methyl-4-(6-((1-methyl-1H-imidazol-4-yl)amino)pyrimidin-4-yl)benzyl)thiazole-5-carboxamide]	500 to 1500 nM	< 10 nM
Cc1cc(-c2ccnc(Nc3cc4n(n3)CCN(C)C4)n2)ccc1CNC(=O)c1cnc(C(C)(C)C)s1 [Example I-55, 2-(tert-butyl)-N-(2-methyl-4-(2-((5-methyl-4,5,6,7-tetrahydropyrazolo[1,5-a]pyrazin-2-yl)amino)pyrimidin-4-yl)benzyl)thiazole-5-carboxamide]	1500 to 10000 nM	< 10 nM
CCn1cc(Nc2nccc(-c3ccc(CNC(=O)c4cnn(C(C)(C)C)c4)c(C)c3)n2)cn1 [Example I-247, 1-(tert-butyl)-N-(4-(2-((1-ethyl-1H-pyrazol-4-yl)amino)pyrimidin-4-yl)-2-methylbenzyl)-1H-pyrazole-4-carboxamide]	< 500 nM	< 10 nM
Cc1cc(-c2ccnc(N)n2)ccc1CNC(=O)c1cnc(C(C)(C)C)s1 [Example I-135, N-(4-(2-aminopyrimidin-4-yl)-2-methylbenzyl)-2-(tert-butyl)thiazole-5-carboxamide]	1500 to 10000 nM	< 10 nM
CC(C)OC1CN(C(=O)NC2CCCCc3cc(-c4ccnc(Nc5cnn(C6CCN(C)CC6F)c5)n4)ccc32)C1 (stereo not shown) [Example I-348, N-[2-[2-[[1-(3-fluoro-1-methyl-4-piperidyl)pyrazol-4-yl]amino]pyrimidin-4-yl]-6,7,8,9-tetrahydro-5H-benzo[7]annulen-5-yl]-3-isopropoxy-azetidine-1-carboxamide]	< 500 nM	< 10 nM
CC(C)(C)C1CCN(C(=O)NC2CCCCc3cc(-c4ccnc(Nc5cnn(CCO)c5)n4)ccc32)C1 (stereo not shown) [Example I-185, 3-(tert-butyl)-N-(2-(2-((1-(2-hydroxyethyl)-1H-pyrazol-4-yl)amino)pyrimidin-4-yl)-6,7,8,9-tetrahydro-5H-benzo[7]annulen-5-yl)pyrrolidine-1-carboxamide]	< 500 nM	< 10 nM
CC(C)n1cc(Nc2nccc(-c3ccc4c(c3)CCCCC4NC(=O)N3CC(OC(C)(C)C)C3)n2)cn1 (stereo not shown) [Example I-174, 3-(tert-butoxy)-N-(2-(2-((1-isopropyl-1H-pyrazol-4-yl)amino)pyrimidin-4-yl)-6,7,8,9-tetrahydro-5H-benzo[7]annulen-5-yl)azetidine-1-carboxamide]	< 500 nM	< 10 nM
Cc1cc(-c2cc(Nc3cc4n(n3)CC(=O)N(C)C4)ncn2)ccc1CNC(=O)c1cnc(C(C)(C)C)s1 [Example I-286, 2-tert-butyl-N-[[2-methyl-4-[6-[(5-methyl-6-oxo-4,7-dihydropyrazolo[1,5-a]pyrazin-2-yl)amino]pyrimidin-4-yl]phenyl]methyl]thiazole-5-carboxamide]	< 500 nM	< 10 nM
Cn1cc(Nc2nccc(-c3ccc(CNC(=O)c4cnn(C(C)(C)C)c4)c(C#N)c3)n2)cn1 [Example I-211, 1-(tert-butyl)-N-(2-cyano-4-(2-((1-methyl-1H-pyrazol-4-yl)amino)pyrimidin-4-yl)benzyl)-1H-pyrazole-4-carboxamide]	< 500 nM	< 10 nM
Cc1cc(-c2ccnc(Nc3cnn(C(C)C)c3)n2)ccc1CNC(=O)N1CC(OC(C)C)C1 [Example I-259, 3-isopropoxy-N-[[4-[2-[(1-isopropylpyrazol-4-yl)amino]pyrimidin-4-yl]-2-methyl-phenyl]methyl]azetidine-1-carboxamide]	< 500 nM	< 10 nM
CC(C)OC1CN(C(=O)NC2CCCCc3cc(-c4ccnc(Nc5cnn(CC(C)(C)O)c5)n4)ccc32)C1 (stereo not shown) [Example I-336, N-[2-[2-[[1-(2-hydroxy-2-methyl-propyl)pyrazol-4-yl]amino]pyrimidin-4-yl]-6,7,8,9-tetrahydro-5H-benzo[7]annulen-5-yl]-3-isopropoxy-azetidine-1-carboxamide]	< 500 nM	< 10 nM
COCCn1cc(Nc2nccc(-c3ccc(CNC(=O)N4CC(OC(C)(C)C)C4)c(C(F)(F)F)c3)n2)cn1 [Example I-204, 3-(tert-butoxy)-N-(4-(2-((1-(2-methoxyethyl)-1H-pyrazol-4-yl)amino)pyrimidin-4-yl)-2-(trifluoromethyl)benzyl)azetidine-1-carboxamide]	< 500 nM	< 10 nM
CC(C)OC1CN(C(=O)NC2CCN(CCO)Cc3cc(-c4ccnc(Nc5cnn(C)c5)n4)ccc32)C1 (stereo not shown) [Example I-346, N-[2-(2-hydroxyethyl)-8-[2-[(1-methylpyrazol-4-yl)amino]pyrimidin-4-yl]-1,3,4,5-tetrahydro-2-benzazepin-5-yl]-3-isopropoxy-azetidine-1-carboxamide]	< 500 nM	< 10 nM
Cc1cc(-c2cc(Nc3ccn(C)n3)ncn2)ccc1CNC(=O)c1cnc(C(C)(C)C)s1 [Example I-66, 2-(tert-butyl)-N-(2-methyl-4-(6-((1-methyl-1H-pyrazol-3-yl)amino)pyrimidin-4-yl)benzyl)thiazole-5-carboxamide]	500 to 1500 nM	< 10 nM
COCCn1cc(Nc2nccc(-c3ccc(CNC(=O)c4cnc(C(C)(C)C)s4)c(C)c3)n2)cn1 [Example I-39, 2-(tert-butyl)-N-(4-(2-((1-(2-methoxyethyl)-1H-pyrazol-4-yl)amino)pyrimidin-4-yl)-2-methylbenzyl)thiazole-5-carboxamide]	< 500 nM	< 10 nM
Cc1cc(-c2ccnc(Nc3cnn(CCO)c3)n2)ccc1CNC(=O)N1CC(OC(C)C)C1 [Example I-217, N-(4-(2-((1-(2-hydroxyethyl)-1H-pyrazol-4-yl)amino)pyrimidin-4-yl)-2-methylbenzyl)-3-isopropoxyazetidine-1-carboxamide]	< 500 nM	< 10 nM
Cc1cc(-c2ccnc(Nc3cnn(C4CCC(C(=O)O)CC4)c3)n2)ccc1CNC(=O)c1cnn(C(C)(C)C)c1 (stereo in doubt) [Example I-195, cis-4-(4-((4-(4-((1-(tert-butyl)-1H-pyrazole-4-carboxamido)methyl)-3-methylphenyl)pyrimidin-2-yl)amino)-1H-pyrazol-1-yl)cyclohexanecarboxylic acid]	< 500 nM	< 10 nM
